Laboratory results: PubChem BioAssay (NCI)
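A five-concentration, 48-hour dose response in 96-well plates underlies each endpoint, interpolated linearly between surrounding concentrations. TGI marks complete inhibition of growth.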

Legend:
Experiment in all cases: NCI-60 cell line screen, 48 h
SNB-19 CNS = tested on: SNB-19 CNS
NCI-H522 lung = tested on: NCI-H522 lung
UACC-62 melanoma = tested on: UACC-62 melanoma
HCT-116 colon = tested on: HCT-116 colon
SN12C renal = tested on: SN12C renal
SF-295 CNS = tested on: SF-295 CNS
KM20L2 colon = tested on: KM20L2 colon
KM12 colon = tested on: KM12 colon
HT29 colon = tested on: HT29 colon
UACC-257 melanoma = tested on: UACC-257 melanoma
SF-268 CNS = tested on: SF-268 CNS
786-0 renal = tested on: 786-0 renal
RPMI-8226 leukemia = tested on: RPMI-8226 leukemia
SK-OV-3 ovarian = tested on: SK-OV-3 ovarian
OVCAR-4 ovarian = tested on: OVCAR-4 ovarian
CCRF-CEM leukemia = tested on: CCRF-CEM leukemia
U251 CNS = tested on: U251 CNS
HOP-92 NSCLC = tested on: HOP-92 NSCLC
HCT-15 colon = tested on: HCT-15 colon
RXF 393 renal = tested on: RXF 393 renal
NCI-H460 lung = tested on: NCI-H460 lung
A498 renal = tested on: A498 renal
LXFL 529 NSCLC = tested on: LXFL 529 NSCLC
EKVX NSCLC = tested on: EKVX NSCLC
ACHN renal = tested on: ACHN renal
K-562 leukemia = tested on: K-562 leukemia
SK-MEL-2 melanoma = tested on: SK-MEL-2 melanoma
NCI-H226 lung = tested on: NCI-H226 lung
DLD-1 colon = tested on: DLD-1 colon
OVCAR-8 ovarian = tested on: OVCAR-8 ovarian
HL-60(TB) leukemia = tested on: HL-60(TB) leukemia
A549 NSCLC = tested on: A549 NSCLC
DMS 114 small cell lung = tested on: DMS 114 small cell lung
SK-MEL-28 melanoma = tested on: SK-MEL-28 melanoma
SNB-78 CNS = tested on: SNB-78 CNS
MOLT-4 leukemia = tested on: MOLT-4 leukemia
IGROV1 ovarian = tested on: IGROV1 ovarian
NCI-H23 lung = tested on: NCI-H23 lung
SW-620 colon = tested on: SW-620 colon
OVCAR-5 ovarian = tested on: OVCAR-5 ovarian
M14 melanoma = tested on: M14 melanoma
COLO 205 colon = tested on: COLO 205 colon
HOP-62 NSCLC = tested on: HOP-62 NSCLC
LOX IMVI melanoma = tested on: LOX IMVI melanoma
MALME-3M melanoma = tested on: MALME-3M melanoma
SK-MEL-5 melanoma = tested on: SK-MEL-5 melanoma
M19-MEL melanoma = tested on: M19-MEL melanoma
RXF-631 renal = tested on: RXF-631 renal
HOP-18 NSCLC = tested on: HOP-18 NSCLC
XF 498 CNS = tested on: XF 498 CNS
UO-31 renal = tested on: UO-31 renal
OVCAR-3 ovarian = tested on: OVCAR-3 ovarian
SF-539 CNS = tested on: SF-539 CNS
NCI/ADR-RES ovarian = tested on: NCI/ADR-RES ovarian
SNB-75 CNS = tested on: SNB-75 CNS
CAKI-1 renal = tested on: CAKI-1 renal
MDA-N = tested on: MDA-N
HCC-2998 colon = tested on: HCC-2998 colon
TK-10 renal = tested on: TK-10 renal
MCF7 breast = tested on: MCF7 breast
DU-145 prostate = tested on: DU-145 prostate
T-47D breast = tested on: T-47D breast
MDA-MB-435 = tested on: MDA-MB-435
DMS 273 small cell lung = tested on: DMS 273 small cell lung
MDA-MB-231 breast = tested on: MDA-MB-231 breast
PC-3 prostate = tested on: PC-3 prostate
HS 578T breast = tested on: HS 578T breast
SR leukemia = tested on: SR leukemia

Measured: TGI

N#CC(C(=O)/C(=N\NC(N)=O)C(C#N)c1ccc(Cl)cc1)c1ccc(Cl)cc1 (configuration not stated)
not listed: NCI/ADR-RES ovarian | SNB-75 CNS | CAKI-1 renal | MDA-N | HCC-2998 colon | TK-10 renal | MCF7 breast | DU-145 prostate | T-47D breast | MDA-MB-435 | DMS 273 small cell lung | MDA-MB-231 breast | PC-3 prostate | HS 578T breast | SR leukemia
> 100 µM: all other assays above

C/C(N=NC(=S)N1CC2CCC(CC2)C1)=C1\C=CC=CN1O
54.5 µM: HOP-92 NSCLC
23.3 µM: M19-MEL melanoma
20.3 µM: M14 melanoma
> 50.7 µM: LOX IMVI melanoma
> 65.9 µM: EKVX NSCLC
94.8 µM: T-47D breast
91.2 µM: XF 498 CNS
41.1 µM: SK-MEL-5 melanoma
> 82.5 µM: SNB-19 CNS
42.7 µM: NCI-H460 lung
> 68.8 µM: A549 NSCLC
30.5 µM: HCT-116 colon
69.3 µM: RXF 393 renal
1.29 µM: CCRF-CEM leukemia
8.73 µM: NCI/ADR-RES ovarian
> 31.6 µM: KM12 colon
29.3 µM: UACC-62 melanoma
3.54 µM: HL-60(TB) leukemia
> 39.2 µM: RPMI-8226 leukemia
80.3 µM: NCI-H522 lung
24.2 µM: DMS 273 small cell lung
> 57.9 µM: HT29 colon
35.2 µM: UACC-257 melanoma
21.7 µM: NCI-H226 lung
6.46 µM: MOLT-4 leukemia
5.4 µM: DMS 114 small cell lung
38.4 µM: COLO 205 colon
> 94.9 µM: A498 renal
> 46.8 µM: K-562 leukemia
85.9 µM: SNB-75 CNS
> 61.4 µM: U251 CNS
43 µM: UO-31 renal
> 82.4 µM: MALME-3M melanoma
31 µM: SF-539 CNS
30.7 µM: ACHN renal
> 71.5 µM: SF-295 CNS
45.4 µM: PC-3 prostate
not listed: LXFL 529 NSCLC | OVCAR-3 ovarian | SR leukemia
> 100 µM: all other assays above

CC1(C)COC(c2cccc3c2C(=O)c2cccc(Cl)c2-3)=N1
68.2 µM: RXF 393 renal
73.4 µM: SK-MEL-5 melanoma
not listed: HCT-116 colon | HOP-92 NSCLC | NCI-H226 lung | DLD-1 colon | HOP-62 NSCLC | M19-MEL melanoma | HOP-18 NSCLC | NCI/ADR-RES ovarian | MDA-N | MCF7 breast | DU-145 prostate | T-47D breast | MDA-MB-435 | MDA-MB-231 breast | PC-3 prostate | HS 578T breast | SR leukemia
> 100 µM: all other assays above

O=C(CC1C(=O)Nc2ccccc2S1=O)Nc1cc(Cl)ccc1Cl (configuration not stated)
not listed: KM12 colon | SK-OV-3 ovarian | OVCAR-4 ovarian | COLO 205 colon | HOP-62 NSCLC | HOP-18 NSCLC | NCI/ADR-RES ovarian | MDA-N | MCF7 breast | DU-145 prostate | T-47D breast | MDA-MB-435 | MDA-MB-231 breast | PC-3 prostate | HS 578T breast
> 100 µM: all other assays above
